Results as given in ChEMBL document CHEMBL1201862, “PubChem BioAssay data set” (2004).
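Where inhibition never reached the appropriate level, the endpoint shown equals the highest concentration tested. Otherwise, values were interpolated linearly from a five-concentration, 48-hour dose response in 96-well plates. At the GI50, growth is halved.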 Active and inactive are the calls of the source. Rule as the data show it: active = GI50 up to about 1.1 µM and inactive = higher.

Tests used:
Test in all cases: DTP human tumour cell line panel, 48 h
LOX IMVI = tested on: LOX IMVI
IGROV-1 = tested on: IGROV-1
HCC 2998 = tested on: HCC 2998
KM12 = tested on: KM12
COLO 205 = tested on: COLO 205
SNB-75 = tested on: SNB-75
RPMI-8226 = tested on: RPMI-8226
UO-31 = tested on: UO-31
ACHN = tested on: ACHN
MDA-MB-435 = tested on: MDA-MB-435
Malme-3M = tested on: Malme-3M
UACC-62 = tested on: UACC-62
NCI-H460 = tested on: NCI-H460
CCRF-CEM = tested on: CCRF-CEM
NCI-H226 = tested on: NCI-H226
OVCAR-8 = tested on: OVCAR-8
SF-268 = tested on: SF-268
OVCAR-5 = tested on: OVCAR-5

SMILES	GI50 (LOX IMVI)	GI50 (IGROV-1)	GI50 (HCC 2998)	GI50 (KM12)	GI50 (COLO 205)	GI50 (SNB-75)	GI50 (RPMI-8226)	GI50 (UO-31)	GI50 (ACHN)	GI50 (MDA-MB-435)	GI50 (Malme-3M)	GI50 (UACC-62)	GI50 (NCI-H460)	GI50 (CCRF-CEM)	GI50 (NCI-H226)	GI50 (OVCAR-8)	GI50 (SF-268)	GI50 (OVCAR-5)
O=C1/C(=C/c2ccc([N+](=O)[O-])cc2)CCCc2ccccc21	> 100 µM (inactive)	> 100 µM (inactive)	> 100 µM (inactive)	> 100 µM (inactive)	> 100 µM (inactive)	83.4 µM (inactive)	> 100 µM (inactive)	> 100 µM (inactive)	> 100 µM (inactive)	> 100 µM (inactive)	> 100 µM (inactive)	91 µM (inactive)	> 100 µM (inactive)	> 100 µM (inactive)	> 100 µM (inactive)	> 100 µM (inactive)	30.4 µM (inactive)	> 100 µM (inactive)
O=C(NNCc1ccco1)c1cc2ccccc2[nH]1	> 100 µM (inactive)	50.7 µM (inactive)	> 36.9 µM (inactive)	65.8 µM (inactive)	> 100 µM (inactive)	47.9 µM (inactive)	> 100 µM (inactive)	> 74.6 µM (inactive)	> 54.7 µM (inactive)	> 85.5 µM (inactive)	> 100 µM (inactive)	> 100 µM (inactive)	> 71.4 µM (inactive)	> 100 µM (inactive)	> 100 µM (inactive)	> 53.1 µM (inactive)	38.8 µM (inactive)	> 100 µM (inactive)
CC(=O)CC1(CBr)Nc2ccc([N+](=O)[O-])cc2NC1=O (stereo not drawn)	52.1 µM (inactive)	> 100 µM (inactive)	> 100 µM (inactive)	56.2 µM (inactive)	> 100 µM (inactive)	> 100 µM (inactive)	44.3 µM (inactive)	61.9 µM (inactive)	> 100 µM (inactive)	> 100 µM (inactive)	92.3 µM (inactive)	> 100 µM (inactive)	> 100 µM (inactive)	45.2 µM (inactive)	> 100 µM (inactive)	> 100 µM (inactive)	> 100 µM (inactive)	> 100 µM (inactive)
COc1ccc2c(CCNS(=O)(=O)c3ccccc3)c(C(C)=O)[nH]c2c1	> 68.2 µM (inactive)	34.4 µM (inactive)	> 100 µM (inactive)	54.2 µM (inactive)	> 73.6 µM (inactive)	52.8 µM (inactive)	> 100 µM (inactive)	9.51 µM (inactive)	3.15 µM (inactive)	12.3 µM (inactive)	> 100 µM (inactive)	> 58.5 µM (inactive)	> 100 µM (inactive)	> 65.2 µM (inactive)	> 100 µM (inactive)	> 69.3 µM (inactive)	52.1 µM (inactive)	> 88.9 µM (inactive)
COc1cc2cc(C(=O)N3CC(CCl)c4c3cc(NC(=O)C(C)(C)c3ccccc3[N+](=O)[O-])c3ccccc43)[nH]c2c(OC)c1OC (stereo not drawn)	0.993 µM (active)	1.35 µM (inactive)	6.15 µM (inactive)	1.86 µM (inactive)	5.43 µM (inactive)	3.76 µM (inactive)	173 µM (inactive)	0.968 µM (active)	0.385 µM (active)	1.75 µM (inactive)	7.31 µM (inactive)	3.32 µM (inactive)	0.158 µM (active)	0.13 µM (active)	5.14 µM (inactive)	0.951 µM (active)	1.88 µM (inactive)	2.77 µM (inactive)
N=c1oc2cc(O)ccc2cc1C(=O)Nc1ccccn1	34.4 µM (inactive)	44.9 µM (inactive)	34.3 µM (inactive)	55 µM (inactive)	14 µM (inactive)	36.5 µM (inactive)	33.7 µM (inactive)	0.292 µM (active)	23.4 µM (inactive)	44.5 µM (inactive)	47.2 µM (inactive)	32.4 µM (inactive)	62.8 µM (inactive)	27.8 µM (inactive)	90.6 µM (inactive)	32.2 µM (inactive)	65.2 µM (inactive)	> 100 µM (inactive)
